Experimental data: PMC11167047 (Cell Death Discovery, 2024)

What was measured:
Assay in all cases: kinome screen (33PanQinase)
Assay type in all cases: biochemical
CDK16/CycY = molecular target: T1, CDK16/CycY (Homo sapiens, UniProt Q00536)
T1 construct: purchased Reaction Biology Europe GmbH (formerly ProQinase)
Procedure: (§1) The Kinome Screening was performed by Reaction Biology Europe GmbH (http://reactionbiology.com; Freiburg i. Br., Germany).

SRMS = molecular target: T2, SRMS (Homo sapiens, UniProt Q9H3Y6)
T2 construct: purchased Reaction Biology Europe GmbH (formerly ProQinase)
T2 sequence (Q9H3Y6 whole entry): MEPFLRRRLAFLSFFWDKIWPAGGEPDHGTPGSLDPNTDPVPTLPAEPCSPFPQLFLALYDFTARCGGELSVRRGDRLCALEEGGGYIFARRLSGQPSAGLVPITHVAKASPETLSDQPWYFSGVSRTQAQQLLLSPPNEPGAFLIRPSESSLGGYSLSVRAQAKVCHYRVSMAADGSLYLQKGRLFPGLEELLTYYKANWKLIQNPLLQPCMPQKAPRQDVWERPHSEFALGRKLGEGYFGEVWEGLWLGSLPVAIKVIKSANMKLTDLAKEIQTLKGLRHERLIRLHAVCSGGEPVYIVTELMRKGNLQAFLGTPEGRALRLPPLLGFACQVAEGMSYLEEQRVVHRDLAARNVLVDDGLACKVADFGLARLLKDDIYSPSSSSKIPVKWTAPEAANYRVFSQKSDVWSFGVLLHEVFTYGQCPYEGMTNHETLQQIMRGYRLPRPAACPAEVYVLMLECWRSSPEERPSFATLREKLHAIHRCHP
Procedure: as §1

CDK6/CycD3 = molecular target: T3, CDK6/CycD3 (Homo sapiens, UniProt Q00534)
T3 construct: purchased Reaction Biology Europe GmbH (formerly ProQinase)
Procedure: as §1

JNK1 = molecular target: T4, JNK1 (Homo sapiens, UniProt P45983)
T4 construct: purchased Reaction Biology Europe GmbH (formerly ProQinase)
T4 sequence (P45983 whole entry): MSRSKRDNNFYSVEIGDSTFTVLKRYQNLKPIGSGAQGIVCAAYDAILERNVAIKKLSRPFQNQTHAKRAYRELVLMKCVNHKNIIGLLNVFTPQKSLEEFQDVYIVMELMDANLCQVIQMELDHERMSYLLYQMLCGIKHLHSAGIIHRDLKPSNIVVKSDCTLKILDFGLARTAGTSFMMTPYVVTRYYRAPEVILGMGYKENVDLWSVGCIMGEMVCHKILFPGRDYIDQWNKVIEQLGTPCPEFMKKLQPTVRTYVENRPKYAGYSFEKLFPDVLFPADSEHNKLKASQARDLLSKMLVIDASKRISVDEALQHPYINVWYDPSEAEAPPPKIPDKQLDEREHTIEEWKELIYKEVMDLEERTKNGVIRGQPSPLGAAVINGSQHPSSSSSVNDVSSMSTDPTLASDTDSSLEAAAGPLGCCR
Procedure: as §1

ERK7 = molecular target: T5, ERK7 (Homo sapiens, UniProt Q8TD08)
T5 construct: purchased Reaction Biology Europe GmbH (formerly ProQinase)
T5 sequence (Q8TD08 1-544): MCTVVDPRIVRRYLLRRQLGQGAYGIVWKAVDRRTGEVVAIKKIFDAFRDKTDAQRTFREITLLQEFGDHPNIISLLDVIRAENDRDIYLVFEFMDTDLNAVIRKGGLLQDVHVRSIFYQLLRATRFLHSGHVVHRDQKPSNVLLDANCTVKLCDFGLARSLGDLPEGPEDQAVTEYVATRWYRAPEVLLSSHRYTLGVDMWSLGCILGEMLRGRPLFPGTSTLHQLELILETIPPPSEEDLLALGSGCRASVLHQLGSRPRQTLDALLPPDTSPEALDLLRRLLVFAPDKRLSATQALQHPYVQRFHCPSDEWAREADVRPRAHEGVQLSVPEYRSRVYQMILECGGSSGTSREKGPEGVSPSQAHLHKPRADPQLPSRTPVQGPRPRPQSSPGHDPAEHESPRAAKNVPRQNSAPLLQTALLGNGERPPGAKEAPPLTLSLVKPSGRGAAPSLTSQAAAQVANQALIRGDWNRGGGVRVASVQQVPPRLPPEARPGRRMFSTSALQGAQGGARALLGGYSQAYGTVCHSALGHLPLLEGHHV
Procedure: as §1

NEK3 = molecular target: T6, NEK3 (Homo sapiens, UniProt P51956)
T6 construct: purchased Reaction Biology Europe GmbH (formerly ProQinase)
T6 sequence (P51956 1-506): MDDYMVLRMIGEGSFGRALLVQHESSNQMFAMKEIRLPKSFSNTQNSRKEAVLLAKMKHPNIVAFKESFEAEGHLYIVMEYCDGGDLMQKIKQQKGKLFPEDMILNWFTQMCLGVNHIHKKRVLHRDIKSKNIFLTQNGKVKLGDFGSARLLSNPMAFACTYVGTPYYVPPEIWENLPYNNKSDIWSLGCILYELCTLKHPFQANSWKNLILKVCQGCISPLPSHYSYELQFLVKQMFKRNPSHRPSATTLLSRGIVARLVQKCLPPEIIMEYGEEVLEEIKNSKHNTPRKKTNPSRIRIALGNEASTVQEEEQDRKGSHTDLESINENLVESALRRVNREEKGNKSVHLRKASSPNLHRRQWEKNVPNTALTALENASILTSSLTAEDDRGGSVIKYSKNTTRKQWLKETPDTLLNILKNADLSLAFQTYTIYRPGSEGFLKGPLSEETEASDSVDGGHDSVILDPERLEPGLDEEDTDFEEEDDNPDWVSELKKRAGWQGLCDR
Procedure: as §1

MAP3K10 = molecular target: T7, MAP3K10 (Homo sapiens, UniProt Q02779)
T7 construct: purchased Reaction Biology Europe GmbH (formerly ProQinase)
T7 sequence (Q02779 whole entry): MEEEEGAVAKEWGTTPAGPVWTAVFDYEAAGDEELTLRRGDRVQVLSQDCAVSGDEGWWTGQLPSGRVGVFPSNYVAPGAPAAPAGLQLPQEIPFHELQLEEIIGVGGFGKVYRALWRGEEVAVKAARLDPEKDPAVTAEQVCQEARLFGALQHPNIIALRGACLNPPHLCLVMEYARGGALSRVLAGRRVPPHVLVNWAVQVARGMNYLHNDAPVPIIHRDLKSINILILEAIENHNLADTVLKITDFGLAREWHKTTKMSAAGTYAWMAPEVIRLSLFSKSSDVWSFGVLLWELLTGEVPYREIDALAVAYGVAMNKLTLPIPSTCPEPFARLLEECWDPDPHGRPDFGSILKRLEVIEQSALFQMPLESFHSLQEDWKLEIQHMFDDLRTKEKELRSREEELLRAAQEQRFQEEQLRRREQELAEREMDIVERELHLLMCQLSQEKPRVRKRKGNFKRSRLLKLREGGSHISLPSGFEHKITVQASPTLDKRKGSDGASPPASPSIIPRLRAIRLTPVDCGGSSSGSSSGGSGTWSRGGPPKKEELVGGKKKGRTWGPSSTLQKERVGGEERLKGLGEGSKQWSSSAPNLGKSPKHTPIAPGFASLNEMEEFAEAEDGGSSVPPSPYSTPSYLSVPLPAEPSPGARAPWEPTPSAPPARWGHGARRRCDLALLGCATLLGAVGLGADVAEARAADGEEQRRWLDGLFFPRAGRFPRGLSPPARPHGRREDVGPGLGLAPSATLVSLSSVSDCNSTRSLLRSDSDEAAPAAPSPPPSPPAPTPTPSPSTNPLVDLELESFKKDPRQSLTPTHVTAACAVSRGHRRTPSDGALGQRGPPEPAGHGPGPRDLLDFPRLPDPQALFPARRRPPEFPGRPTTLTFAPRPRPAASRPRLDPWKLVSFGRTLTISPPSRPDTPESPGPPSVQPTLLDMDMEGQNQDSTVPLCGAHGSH
Procedure: as §1

ACVR1B = molecular target: T8, ACVR1B (Homo sapiens, UniProt P36896)
T8 construct: purchased Reaction Biology Europe GmbH (formerly ProQinase)
T8 sequence (P36896 24-505): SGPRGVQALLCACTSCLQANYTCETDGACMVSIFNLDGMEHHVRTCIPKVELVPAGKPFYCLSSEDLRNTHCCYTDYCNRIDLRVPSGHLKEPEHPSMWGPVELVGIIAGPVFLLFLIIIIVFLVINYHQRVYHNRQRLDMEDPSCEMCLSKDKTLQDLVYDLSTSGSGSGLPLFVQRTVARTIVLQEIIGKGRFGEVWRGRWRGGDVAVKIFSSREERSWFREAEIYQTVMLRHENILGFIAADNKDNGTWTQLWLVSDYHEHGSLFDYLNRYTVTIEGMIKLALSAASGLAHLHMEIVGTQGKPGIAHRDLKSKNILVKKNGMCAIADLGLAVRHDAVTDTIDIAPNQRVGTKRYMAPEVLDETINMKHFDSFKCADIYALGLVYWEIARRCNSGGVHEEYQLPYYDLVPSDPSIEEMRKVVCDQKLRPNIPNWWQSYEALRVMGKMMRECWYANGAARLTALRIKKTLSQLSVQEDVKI
Procedure: as §1

PKCβ2 = molecular target: T9, PKCβ2 (Homo sapiens, UniProt P05771)
T9 construct: purchased Reaction Biology Europe GmbH (formerly ProQinase)
T9 sequence (P05771 1-673 isoform P05771-2): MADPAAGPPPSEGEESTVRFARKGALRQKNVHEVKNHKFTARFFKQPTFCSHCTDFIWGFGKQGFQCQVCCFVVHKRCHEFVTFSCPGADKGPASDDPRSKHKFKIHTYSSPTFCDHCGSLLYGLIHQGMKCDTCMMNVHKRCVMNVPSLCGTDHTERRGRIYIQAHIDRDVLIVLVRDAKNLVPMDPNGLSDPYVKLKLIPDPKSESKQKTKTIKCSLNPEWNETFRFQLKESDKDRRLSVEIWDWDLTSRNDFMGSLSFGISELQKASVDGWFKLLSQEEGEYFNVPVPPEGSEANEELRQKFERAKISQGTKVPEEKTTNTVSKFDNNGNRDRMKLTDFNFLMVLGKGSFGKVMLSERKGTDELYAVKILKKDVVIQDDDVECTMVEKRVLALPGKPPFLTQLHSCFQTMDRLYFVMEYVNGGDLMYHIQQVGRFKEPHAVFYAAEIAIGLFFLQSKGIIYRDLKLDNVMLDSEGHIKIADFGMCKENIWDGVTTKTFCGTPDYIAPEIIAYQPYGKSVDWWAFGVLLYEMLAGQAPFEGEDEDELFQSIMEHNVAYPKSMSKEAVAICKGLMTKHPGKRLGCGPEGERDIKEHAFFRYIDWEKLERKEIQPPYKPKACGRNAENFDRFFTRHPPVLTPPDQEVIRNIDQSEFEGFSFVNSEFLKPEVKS
Procedure: as §1

MST4 = molecular target: T10, MST4 (Homo sapiens, UniProt Q9P289)
T10 construct: purchased Reaction Biology Europe GmbH (formerly ProQinase)
T10 sequence (Q9P289 whole entry): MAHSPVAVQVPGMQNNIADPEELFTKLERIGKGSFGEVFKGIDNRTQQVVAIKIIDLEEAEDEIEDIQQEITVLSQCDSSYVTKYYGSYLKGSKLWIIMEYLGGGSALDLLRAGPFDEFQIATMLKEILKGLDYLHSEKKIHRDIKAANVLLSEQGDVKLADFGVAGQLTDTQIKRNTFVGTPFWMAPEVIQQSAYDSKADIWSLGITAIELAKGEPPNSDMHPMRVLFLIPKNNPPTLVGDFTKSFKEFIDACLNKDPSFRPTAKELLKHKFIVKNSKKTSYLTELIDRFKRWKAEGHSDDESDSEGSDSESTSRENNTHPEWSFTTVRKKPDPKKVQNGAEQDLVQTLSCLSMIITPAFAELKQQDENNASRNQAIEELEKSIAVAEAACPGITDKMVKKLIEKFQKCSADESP
Procedure: as §1

PLK1 = molecular target: T11, PLK1 (Homo sapiens, UniProt P53350)
T11 construct: purchased Reaction Biology Europe GmbH (formerly ProQinase)
T11 sequence (P53350 whole entry): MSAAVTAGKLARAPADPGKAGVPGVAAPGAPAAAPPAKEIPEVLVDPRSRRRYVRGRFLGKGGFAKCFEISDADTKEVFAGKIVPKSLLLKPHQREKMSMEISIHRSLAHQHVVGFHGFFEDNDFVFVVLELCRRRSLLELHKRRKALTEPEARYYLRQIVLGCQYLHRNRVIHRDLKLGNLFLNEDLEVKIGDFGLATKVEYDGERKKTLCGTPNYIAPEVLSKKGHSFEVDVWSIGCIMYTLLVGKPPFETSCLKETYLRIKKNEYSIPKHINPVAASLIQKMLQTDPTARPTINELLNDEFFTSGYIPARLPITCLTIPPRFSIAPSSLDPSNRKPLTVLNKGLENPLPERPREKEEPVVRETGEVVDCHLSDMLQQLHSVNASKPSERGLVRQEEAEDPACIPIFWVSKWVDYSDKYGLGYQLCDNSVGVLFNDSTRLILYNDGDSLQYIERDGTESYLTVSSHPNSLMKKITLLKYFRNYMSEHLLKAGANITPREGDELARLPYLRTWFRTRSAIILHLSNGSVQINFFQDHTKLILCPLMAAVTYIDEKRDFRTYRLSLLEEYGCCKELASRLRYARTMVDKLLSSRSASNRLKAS
Procedure: as §1

BMPR1B = molecular target: T12, BMPR1B (Homo sapiens, UniProt O00238)
T12 construct: purchased Reaction Biology Europe GmbH (formerly ProQinase)
T12 sequence (O00238 14-502): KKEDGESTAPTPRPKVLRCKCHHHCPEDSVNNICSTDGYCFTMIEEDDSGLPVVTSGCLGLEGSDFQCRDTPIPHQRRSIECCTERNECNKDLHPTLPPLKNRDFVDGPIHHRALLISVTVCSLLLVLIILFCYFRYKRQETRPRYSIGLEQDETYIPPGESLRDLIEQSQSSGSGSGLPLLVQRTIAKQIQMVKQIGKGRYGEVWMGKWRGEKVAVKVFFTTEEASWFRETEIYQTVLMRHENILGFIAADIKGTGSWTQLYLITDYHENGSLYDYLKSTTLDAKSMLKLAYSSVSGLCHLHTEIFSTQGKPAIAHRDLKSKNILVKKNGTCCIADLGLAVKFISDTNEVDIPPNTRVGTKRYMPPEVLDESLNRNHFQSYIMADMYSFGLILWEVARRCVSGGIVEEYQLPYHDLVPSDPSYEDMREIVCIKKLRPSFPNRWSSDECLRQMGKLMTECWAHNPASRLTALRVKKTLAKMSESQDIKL
Procedure: as §1

STK17A = molecular target: T13, STK17A (Homo sapiens, UniProt Q9UEE5)
T13 construct: purchased Reaction Biology Europe GmbH (formerly ProQinase)
T13 sequence (Q9UEE5 1-414): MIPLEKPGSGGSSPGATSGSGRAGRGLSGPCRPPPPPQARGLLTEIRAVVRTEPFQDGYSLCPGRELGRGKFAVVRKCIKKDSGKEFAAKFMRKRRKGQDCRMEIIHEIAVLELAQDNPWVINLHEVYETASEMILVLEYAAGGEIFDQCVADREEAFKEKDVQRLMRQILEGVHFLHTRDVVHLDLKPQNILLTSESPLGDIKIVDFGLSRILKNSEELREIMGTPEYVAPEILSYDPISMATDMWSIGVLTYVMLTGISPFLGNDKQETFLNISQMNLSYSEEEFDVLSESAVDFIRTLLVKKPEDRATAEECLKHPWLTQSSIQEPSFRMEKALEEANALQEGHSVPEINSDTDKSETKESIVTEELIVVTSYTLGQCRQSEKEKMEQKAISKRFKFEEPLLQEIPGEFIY
Procedure: as §1

T1 sequence (Q00536 whole entry): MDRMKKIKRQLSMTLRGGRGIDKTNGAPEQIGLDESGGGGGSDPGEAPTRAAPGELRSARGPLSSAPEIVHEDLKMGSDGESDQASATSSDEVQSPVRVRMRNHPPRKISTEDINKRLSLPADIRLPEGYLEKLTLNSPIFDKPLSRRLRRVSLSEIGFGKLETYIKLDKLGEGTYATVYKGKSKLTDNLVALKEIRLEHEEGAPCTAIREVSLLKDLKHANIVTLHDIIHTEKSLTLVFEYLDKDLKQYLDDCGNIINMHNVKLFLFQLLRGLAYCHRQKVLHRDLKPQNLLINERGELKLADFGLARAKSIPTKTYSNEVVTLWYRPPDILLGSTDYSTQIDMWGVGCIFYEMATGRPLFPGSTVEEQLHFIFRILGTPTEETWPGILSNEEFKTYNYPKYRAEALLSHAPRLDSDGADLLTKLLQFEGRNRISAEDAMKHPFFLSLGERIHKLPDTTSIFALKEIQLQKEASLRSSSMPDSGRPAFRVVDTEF
T1 sequence (Q8ND76 whole entry partner): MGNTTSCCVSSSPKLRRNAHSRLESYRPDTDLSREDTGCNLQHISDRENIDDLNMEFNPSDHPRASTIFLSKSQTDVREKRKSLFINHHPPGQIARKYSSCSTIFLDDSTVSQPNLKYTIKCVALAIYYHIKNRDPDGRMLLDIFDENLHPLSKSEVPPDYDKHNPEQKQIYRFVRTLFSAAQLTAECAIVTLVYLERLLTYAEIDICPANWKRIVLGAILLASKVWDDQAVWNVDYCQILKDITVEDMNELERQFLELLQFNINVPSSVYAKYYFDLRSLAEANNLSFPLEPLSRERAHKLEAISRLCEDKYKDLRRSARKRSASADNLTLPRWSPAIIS

Structure (SMILES)	residual kinase activity (CDK16/CycY; 0.3 µM)	residual kinase activity (SRMS; 0.3 µM)	residual kinase activity (CDK6/CycD3; 0.3 µM)	residual kinase activity (JNK1; 0.3 µM)	residual kinase activity (ERK7; 0.3 µM)	residual kinase activity (NEK3; 0.3 µM)	residual kinase activity (MAP3K10; 0.3 µM)	residual kinase activity (ACVR1B; 0.3 µM)	residual kinase activity (PKCβ2; 0.3 µM)	residual kinase activity (MST4; 0.3 µM)	residual kinase activity (PLK1; 0.3 µM)	residual kinase activity (BMPR1B; 0.3 µM)	residual kinase activity (STK17A; 0.3 µM)	other results
COc1ccnc2[nH]cc(-c3cc(N)nc(N)c3)c12 [meriolin 16]	16 % of control	93 % of control	98 % of control	95 % of control	59 % of control	78 % of control	76 % of control	69 % of control	71 % of control	81 % of control	90 % of control	91 % of control	23 % of control	residual kinase activity (CDK16/CycY; 0.03 µM): 64 % of control; residual kinase activity (SRMS; 0.03 µM): 101 % of control; residual kinase activity (CDK6/CycD3; 0.03 µM): 88 % of control; residual kinase activity (JNK1; 0.03 µM): 102 % of control; residual kinase activity (ERK7; 0.03 µM): 86 % of control; residual kinase activity (NEK3; 0.03 µM): 96 % of control; residual kinase activity (MAP3K10; 0.03 µM): 99 % of control; residual kinase activity (ACVR1B; 0.03 µM): 75 % of control; residual kinase activity (PKCβ2; 0.03 µM): 106 % of control; residual kinase activity (MST4; 0.03 µM): 78 % of control; residual kinase activity (PLK1; 0.03 µM): 95 % of control; residual kinase activity (BMPR1B; 0.03 µM): 91 % of control; residual kinase activity (STK17A; 0.03 µM): 83 % of control
c1ccc(CNc2cc(-c3c[nH]c4ncccc34)ccn2)cc1 [meriolin 36]	17 % of control	93 % of control	76 % of control	74 % of control	7 % of control	94 % of control	50 % of control	43 % of control	51 % of control	52 % of control	100 % of control	75 % of control	23 % of control	residual kinase activity (CDK16/CycY; 3 µM): 3 % of control; residual kinase activity (SRMS; 3 µM): 73 % of control; residual kinase activity (CDK6/CycD3; 3 µM): 26 % of control; residual kinase activity (JNK1; 3 µM): 23 % of control; residual kinase activity (ERK7; 3 µM): -3 % of control; residual kinase activity (NEK3; 3 µM): 79 % of control; residual kinase activity (MAP3K10; 3 µM): 9 % of control; residual kinase activity (ACVR1B; 3 µM): 10 % of control; residual kinase activity (PKCβ2; 3 µM): 11 % of control; residual kinase activity (MST4; 3 µM): 12 % of control; residual kinase activity (PLK1; 3 µM): 66 % of control; residual kinase activity (BMPR1B; 3 µM): 45 % of control; residual kinase activity (STK17A; 3 µM): 4 % of control
